Measurements published in paper PMC7558026, “Exploring and applying the substrate promiscuity of a C-glycosyltransferase in the chemo-enzymatic synthesis of bioactive C-glycosides” (Nature Communications, 2020).
Several values for one entry are separate records, joined by “and”; a condition that tells them apart may be missing. Equal entries are not always repeated.

How the values were obtained:
E. coli-AbCGT [1] = assay: Glycosylation by whole-cell biocatalyst E. coli-AbCGT; type: cell-based; settings: fig. 2c, 30 °C, M9 medium, 12 h, 0.25 mM acceptor; Reaction-1 to -3
Procedure: The induced cells of E. coli-AbCGT were harvested by centrifugation at 3000 × g for 5 min at 4 °C and washed with ddH2O. Pellets were resuspended by M9 minimal medium containing 2% glucose to appropriate cell density (OD600 = 3.0). Prepared whole-cell biocatalyst of E. coli-AbCGT (500 μL) was then added to 2-mL tubes containing various acceptors at a concentration of 0.25 mM. The mixture was incubated at 30 °C for 12 h with shaking (200 rpm). The reactions were analyzed using GT activity assays as described above. For quantification, three parallel assays were routinely carried out.

AbCGT = AbCGT (Aloe vera, UniProt A0A7G9P699); assay: Glycosyltransferase activity assay, purified AbCGT (wild type) with aglycon acceptors and UDP-Glc; type: biochemical, Aloe barbadensis; settings: fig. 2b, purified AbCGT, redesigned substrates; Reaction-1 to -3
SGLT1 = target: T1, SGLT1 (Homo sapiens, UniProt P13866); assay: 1-NBDG uptake in HEK293 cells stably expressing SGLT1; type: cell-based; settings: HEK293, compound at 10 μM; triplicate; read-out: SGLT1 inhibitory rates
T1 construct: The full-length SGLT1 cDNA was obtained by PCR with forward primer; expressed in transfected cells
T1 sequence (P13866 1-664): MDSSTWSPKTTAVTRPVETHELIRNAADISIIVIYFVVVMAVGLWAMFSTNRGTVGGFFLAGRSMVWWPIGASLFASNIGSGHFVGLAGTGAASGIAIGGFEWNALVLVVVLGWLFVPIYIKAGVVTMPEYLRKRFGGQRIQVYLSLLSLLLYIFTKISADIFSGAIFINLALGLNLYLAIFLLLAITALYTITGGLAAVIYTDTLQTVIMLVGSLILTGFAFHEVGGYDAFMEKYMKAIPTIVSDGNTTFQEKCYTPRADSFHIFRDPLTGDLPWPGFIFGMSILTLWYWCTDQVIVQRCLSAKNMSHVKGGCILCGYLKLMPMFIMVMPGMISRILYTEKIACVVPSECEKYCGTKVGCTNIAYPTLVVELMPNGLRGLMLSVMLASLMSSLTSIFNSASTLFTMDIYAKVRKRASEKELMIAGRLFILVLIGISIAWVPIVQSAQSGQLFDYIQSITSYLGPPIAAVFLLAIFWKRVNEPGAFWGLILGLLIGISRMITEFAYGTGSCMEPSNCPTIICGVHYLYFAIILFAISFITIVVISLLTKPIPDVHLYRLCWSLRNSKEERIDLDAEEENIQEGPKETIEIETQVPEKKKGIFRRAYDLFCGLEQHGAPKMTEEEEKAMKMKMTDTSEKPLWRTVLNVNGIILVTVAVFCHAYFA

SGLT2 = target: T2, SGLT2 (Homo sapiens, UniProt P31639); assay: 1-NBDG uptake in HEK293 cells stably expressing SGLT2; type: cell-based; settings: triplicate; for inhibition at 10 µM: HEK293, compound at 10 μM, read-out: SGLT2 inhibitory rates; for SGLT2 inhibitory rates: compound at 10 μM, 10 µM
T2 construct: Human full-length SGLT2 cDNA (NM_003041.3) was synthesized; expressed in transfected cells; host or cells: HEK293, retroviral transduction with pMSCVpuro-SGLT2, puromycin selected
T2 sequence (P31639 1-672): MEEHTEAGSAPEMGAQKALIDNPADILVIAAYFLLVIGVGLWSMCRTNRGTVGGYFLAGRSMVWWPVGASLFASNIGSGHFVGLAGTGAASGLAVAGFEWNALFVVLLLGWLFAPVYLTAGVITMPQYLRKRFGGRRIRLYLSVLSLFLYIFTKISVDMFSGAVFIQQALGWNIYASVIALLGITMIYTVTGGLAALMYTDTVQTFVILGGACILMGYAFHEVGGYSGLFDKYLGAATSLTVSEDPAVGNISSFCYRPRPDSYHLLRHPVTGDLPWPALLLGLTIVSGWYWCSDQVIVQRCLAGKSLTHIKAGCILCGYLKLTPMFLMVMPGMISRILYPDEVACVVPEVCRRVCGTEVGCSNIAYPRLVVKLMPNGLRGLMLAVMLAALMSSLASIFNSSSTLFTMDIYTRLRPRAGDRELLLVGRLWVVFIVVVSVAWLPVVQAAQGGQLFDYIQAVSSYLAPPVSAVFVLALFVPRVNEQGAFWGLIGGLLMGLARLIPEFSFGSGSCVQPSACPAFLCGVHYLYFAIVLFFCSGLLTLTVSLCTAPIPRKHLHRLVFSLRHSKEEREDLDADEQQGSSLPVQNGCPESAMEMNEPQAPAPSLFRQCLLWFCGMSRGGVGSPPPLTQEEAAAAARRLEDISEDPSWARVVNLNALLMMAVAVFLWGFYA

E. coli-AbCGT [2] = assay: Optimization of cell density and substrate concentration in whole-cell biocatalysis; type: cell-based; settings: replicates 1-3; for Conversion rate of 46: substrate 150 mg L^‒1; for conversion rate: OD600 = 13.0
Procedure: To study the optimal cell density, the reaction was performed in various cell densities with OD600 values in the range of 1.0−15.0 and a substrate concentration of 150 mg L^‒1. […] For quantification, three parallel assays were routinely carried out.

Chain of AbCGT (A0A7G9P699 entry or part of it): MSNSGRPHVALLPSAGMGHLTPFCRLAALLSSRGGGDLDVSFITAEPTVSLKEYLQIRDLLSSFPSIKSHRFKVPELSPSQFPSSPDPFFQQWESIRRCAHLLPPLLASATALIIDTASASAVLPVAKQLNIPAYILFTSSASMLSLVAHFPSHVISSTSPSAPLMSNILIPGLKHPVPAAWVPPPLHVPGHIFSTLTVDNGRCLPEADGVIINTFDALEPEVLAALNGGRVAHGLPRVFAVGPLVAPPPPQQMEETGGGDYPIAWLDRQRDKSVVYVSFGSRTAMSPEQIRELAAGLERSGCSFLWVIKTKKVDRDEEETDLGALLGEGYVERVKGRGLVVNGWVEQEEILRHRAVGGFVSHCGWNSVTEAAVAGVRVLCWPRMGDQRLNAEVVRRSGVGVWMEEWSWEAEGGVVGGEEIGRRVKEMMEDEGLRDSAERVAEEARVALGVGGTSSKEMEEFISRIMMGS

With `CCc1ccc(O)cc1O` [Compound 27] the “conversion rates, Whole cells” value (E. coli-AbCGT [1]) was 0% and the “conversion rates, Purified Enzyme” value (AbCGT) was 5.7% and 8.5% and 6.8%.

`CCCCc1ccc(Cc2c(O)cc(O)c(C3OC(CO)C(O)C(O)C3O)c2O)cc1` (stereo not shown) [Compound 47a] gave an inhibition at 10 µM (SGLT1) of 17.1%, an inhibition at 10 µM (SGLT2) greater than 96% and an SGLT2 inhibitory rates (SGLT2) of 100%.

In the case of `Oc1ccc(Cc2ccccc2)c(O)c1` [Compound 28], the “conversion rates, Whole cells” value (E. coli-AbCGT [1]) was 0.5% and 0.7% and 0.3% and the “conversion rates, Purified Enzyme” value (AbCGT) was 55.6% and 72.2% and 58.2%.

`OCC1OC(c2c(O)cc(O)c(Cc3ccc(Cl)cc3)c2O)C(O)C(O)C1O` (stereo not shown) [Compound 49a] gave an inhibition at 10 µM (SGLT1) of 34.7%, an inhibition at 10 µM (SGLT2) greater than 96% and an SGLT2 inhibitory rates (SGLT2) of 98.5%.

With `Oc1cc(O)c(CCc2c[nH]c3ccccc23)c(O)c1` [Compound 43] the inhibition at 10 µM (SGLT2) was 12.9%, the “conversion rates, Whole cells” value (E. coli-AbCGT [1]) was 87.2% and 96% and 92.6% and the “conversion rates, Purified Enzyme” value (AbCGT) was 100%.

For `Oc1cc(O)c(Cc2ccc(-c3ccccc3)cc2)c(O)c1` [Compound 50], the inhibition at 10 µM (SGLT2) was 0.2%, the “conversion rates, Whole cells” value (E. coli-AbCGT [1]) was 0% and the “conversion rates, Purified Enzyme” value (AbCGT) was 100%.

In the case of `Oc1cc(O)c(CC2CCCCC2)c(O)c1` [Compound 37], the “conversion rates, Whole cells” value (E. coli-AbCGT [1]) was 100% and the “conversion rates, Purified Enzyme” value (AbCGT) was 100%.

In the case of `Oc1cc(O)c(Cc2ccsc2)c(O)c1` [Compound 42], the inhibition at 10 µM (SGLT2) was 2.7%, the “conversion rates, Whole cells” value (E. coli-AbCGT [1]) was 73% and 84.5% and 79.6% and the “conversion rates, Purified Enzyme” value (AbCGT) was 100%.

`Oc1cc(O)c(CC2CCCC2)c(O)c1` [Compound 36] was tested, and the “conversion rates, Whole cells” value (E. coli-AbCGT [1]) was 53.8% and 69.1% and 57.1% and the “conversion rates, Purified Enzyme” value (AbCGT) was 100%.

`Oc1ccc(CCc2c(O)cc(O)cc2O)cc1` [Compound 51] was tested, and the inhibition at 10 µM (SGLT2) was 3.3%, the “conversion rates, Whole cells” value (E. coli-AbCGT [1]) was 87.9% and 92.2% and 95.8% and the “conversion rates, Purified Enzyme” value (AbCGT) was 100%.

With `Oc1cc(O)c(CCc2ccc(Cl)cc2)c(O)c1` [Compound 54] the inhibition at 10 µM (SGLT2) was 0.2%, the “conversion rates, Whole cells” value (E. coli-AbCGT [1]) was 39.8% and 44.7% and 47.4% and the “conversion rates, Purified Enzyme” value (AbCGT) was 100%.

For `CCc1c(O)cc(O)cc1O` [Compound 30], the “conversion rates, Whole cells” value (E. coli-AbCGT [1]) was 0% and the “conversion rates, Purified Enzyme” value (AbCGT) was 100%.

For `Oc1cc(O)c(CC2CC2)c(O)c1` [Compound 34], the “conversion rates, Whole cells” value (E. coli-AbCGT [1]) was 11.3% and 11.9% and 15.8% and the “conversion rates, Purified Enzyme” value (AbCGT) was 100%.

`Cc1ccc(Cc2c(O)cc(O)cc2O)cc1` [Compound 46] was tested, and the inhibition at 10 µM (SGLT2) was 10.8%, the “Conversion rate of 46” value (E. coli-AbCGT [2]; OD600nm 1.0) was 2% and 4% (2×) and the “Conversion rate of 46” value (E. coli-AbCGT [2]; OD600nm 3.0) was 13% and 11% and 15%. The “Conversion rate of 46” value (E. coli-AbCGT [2]; OD600nm 5.0) was 22% (2×) and 19%, the “Conversion rate of 46” value (E. coli-AbCGT [2]; OD600nm 7.0) was 26% and 28% and 32% and the “Conversion rate of 46” value (E. coli-AbCGT [2]; OD600nm 9.0) was 33% (2×) and 29%. For the same compound, the “Conversion rate of 46” value (E. coli-AbCGT [2]; OD600nm 11.0) was 38% and 34% and 33%, the “Conversion rate of 46” value (E. coli-AbCGT [2]; OD600nm 13.0) was 38% and the “Conversion rate of 46” value (E. coli-AbCGT [2]; OD600nm 15.0) was 43% and 35% (2×). The conversion rate (E. coli-AbCGT [2]; concentration of 46 57.5 mg/L) was 100%, the conversion rate (E. coli-AbCGT [2]; concentration of 46 115 mg/L) was 100% and the conversion rate (E. coli-AbCGT [2]; concentration of 46 172.5 mg/L) was 100%. The conversion rate (E. coli-AbCGT [2]; concentration of 46 230 mg/L) was 100%, the conversion rate (E. coli-AbCGT [2]; concentration of 46 287.5 mg/L) was 89% and 92% and 93% and the conversion rate (E. coli-AbCGT [2]; concentration of 46 345 mg/L) was 27.5% and 20% and 29.8%. The conversion rate (E. coli-AbCGT [2]; concentration of 46 460 mg/L) was 13.6% and 13.9% and 14%, the conversion rate (E. coli-AbCGT [2]; concentration of 46 575 mg/L) was 8.8% and 8.5% and 8% and the “conversion rates, Whole cells” value (E. coli-AbCGT [1]) was 89% and 80.2% and 82.3%. For the same compound, the “conversion rates, Purified Enzyme” value (AbCGT) was 100%.

`CCCCc1ccc(Cc2c(O)cc(O)cc2O)cc1` [Compound 47] was tested, and the inhibition at 10 µM (SGLT2) was 0.2%, the “conversion rates, Whole cells” value (E. coli-AbCGT [1]) was 2.7% and 3.2% and 3.1% and the “conversion rates, Purified Enzyme” value (AbCGT) was 100%.

`Oc1ccc(/N=N/c2nccs2)c(O)c1` [Compound 29] was tested, and the “conversion rates, Whole cells” value (E. coli-AbCGT [1]) was 3.7% and 5.4% and 5.9% and the “conversion rates, Purified Enzyme” value (AbCGT) was 35.9% and 40% and 39.9%.

In the case of `Oc1cc(O)c(Cc2ccc(F)cc2)c(O)c1` [Compound 48], the inhibition at 10 µM (SGLT2) was 0.2%, the “conversion rates, Whole cells” value (E. coli-AbCGT [1]) was 86% and 92.2% and 88.8% and the “conversion rates, Purified Enzyme” value (AbCGT) was 100%.

With `Oc1cc(O)c(Cc2ccc(Cl)cc2)c(O)c1` [Compound 49] the inhibition at 10 µM (SGLT2) was 0.2%, the “conversion rates, Whole cells” value (E. coli-AbCGT [1]) was 0.8% and 0.9% and the “conversion rates, Purified Enzyme” value (AbCGT) was 100%.

With `OCC1OC(c2c(O)cc(O)c(Cc3ccc(-c4ccccc4)cc3)c2O)C(O)C(O)C1O` (stereo not shown) [Compound 50a] the inhibition at 10 µM (SGLT1) was 27.1%, the inhibition at 10 µM (SGLT2) was greater than 96% and the SGLT2 inhibitory rates (SGLT2) was 96.3%.

In the case of `Oc1cc(O)c(CCc2ccc3c(c2)CCO3)c(O)c1` [Compound 52], the inhibition at 10 µM (SGLT2) was 0.8%, the “conversion rates, Whole cells” value (E. coli-AbCGT [1]) was 84.1% and 72.7% and 80.3% and the “conversion rates, Purified Enzyme” value (AbCGT) was 100%.

`Oc1cc(O)c(CCCCc2ccccc2)c(O)c1` [Compound 40] was tested, and the “conversion rates, Whole cells” value (E. coli-AbCGT [1]) was 100% and the “conversion rates, Purified Enzyme” value (AbCGT) was 100%.

With `Oc1cc(O)c(CCc2ccccc2)c(O)c1` [Compound 39, 1-phenethylbenzene-2,4,6-triol] the inhibition at 10 µM (SGLT2) was 0.2%, the “conversion rates, Whole cells” value (E. coli-AbCGT [1]) was 7.2% and 13.4% and 9.4% and the “conversion rates, Purified Enzyme” value (AbCGT) was 100%.

With `Oc1cc(O)c(Cc2ccccc2)c(O)c1` [Compound 38, 1-benzylbenzene-2,4,6-triol] the inhibition at 10 µM (SGLT2) was 4.2%, the “conversion rates, Whole cells” value (E. coli-AbCGT [1]) was 44.3% and 46.1% and 53.7% and the “conversion rates, Purified Enzyme” value (AbCGT) was 100%.

With `Oc1cc(O)c(CCc2ccc(F)cc2)c(O)c1` [Compound 53] the inhibition at 10 µM (SGLT2) was 0.2%, the “conversion rates, Whole cells” value (E. coli-AbCGT [1]) was 66.8% and 61% and 58.3% and the “conversion rates, Purified Enzyme” value (AbCGT) was 100%.

In the case of `Oc1cc(O)c(CC2CCC2)c(O)c1` [Compound 35], the “conversion rates, Whole cells” value (E. coli-AbCGT [1]) was 41.1% and 39.5% and 30.5% and the “conversion rates, Purified Enzyme” value (AbCGT) was 100%.
